Source: patent publication US20240342138A1, “MICROTUBULE TARGETING AGENTS” (BPGbio, Inc., priority 2023, published 2024)

Legend:
tubulin = target: T1, tubulin (Sus scrofa, UniProt P02550+P02554); assay: In vitro tubulin polymerization assay (OD based, absorbance 340 nm); format: biochemical, Porcine; conditions: 10 μM and 20 nM; FIG. 1; N=3
T1 construct: purchased Cytoskeleton Inc. BK006P
Description: The protocol followed for tubulin polymerization is according to the manufacturer's protocol. The following components were diluted as follows: • A vial of lyophilized GTP was diluted in 100 μl of sterile water and made into 10 μl aliquots and stored at −80° C. • Tubulin was diluted to 10 mg/ml in buffers+GTP as recommended, flash frozen in liquid nitrogen and stored at −80° C. • Paclitaxel was diluted to 2 mM in DMSO
The half area 96-well plate provided by kit manufacturer was allowed to warm up to 37° C. for 30 mins in the Molecular Devices M5 plate reader. The Compound 1 and nocodazole were diluted in DMSO to a concentration of 2 mM, followed by dilution of these working stocks in the General Tubulin Buffer (GTB-provided in the kit) to a 10× the final well concentration and final well volume of 10 μl. Same was done with the 2 mM Paclitaxel stock. Once the plate was warmed up, the compounds were added in duplicates to the wells. […] The plate was placed at 37° C. in the plate reader for 3 minutes. […] The experimental setup was as follows: • Absorbance read: 340 nm • Temperature: 37° C. • Shake: 5 s at medium speed prior to first read. • Read: The absorbance was read every 1 min for 90 minutes (total 91 reads).
The values were normalized to the first read by designating the first read as ‘0’ subtracting the value of the first read from the following reads. […]

COLO205 cells = assay: In vitro potency, ATPlite 1Step (NTRC Oncolines); format: cell-based; conditions: Homo sapiens, COLO 205
Description: FIG. 11A-11E show the efficacy of Compound 1 in a colorectal cancer xenograft model (COLO205). A) In vitro potency of Compound 1 in COLO205 cells as evaluated by ATPlite 1Step™ Perkin Elmer (performed by NTRC Oncolines). B) COLO205 cells were implanted subcutaneously in nude mice and tumors were allowed to grow to a volume of 210 mm3 followed by randomization of animals into three (3) groups (vehicle control, 75 mg/kg, 150 mg/kg Compound 1) with 12 animals per group. A Compound 1 solid dispersion was prepared prior to each dosing and administered by oral gavage two times a day (BID). Mean tumor volume of each group over time and the growth of tumor in each individual animal was graphed. For each individual animal of […] group TGI (%) was calculated based on the tumor growth inhibition of individual tumor at each given day of the study compared to the average of the group for that given day of the study. P-values were calculated using two-tailed distribution and two-sample equal variance (homoscedastic) for each group treated with Compound 1 for each given day of the study in reference to vehicle control. […] The level of two biomarkers, pHH3 and CCNB1 in each tissue was measured and graphed as the Min-to-Max plot and scatter plot of the level of each biomarker. […] E) Body weight of each individual animal was measured on each day of the study and graphed using Graphpad Prism. […]

T1 sequence (P02550 whole entry): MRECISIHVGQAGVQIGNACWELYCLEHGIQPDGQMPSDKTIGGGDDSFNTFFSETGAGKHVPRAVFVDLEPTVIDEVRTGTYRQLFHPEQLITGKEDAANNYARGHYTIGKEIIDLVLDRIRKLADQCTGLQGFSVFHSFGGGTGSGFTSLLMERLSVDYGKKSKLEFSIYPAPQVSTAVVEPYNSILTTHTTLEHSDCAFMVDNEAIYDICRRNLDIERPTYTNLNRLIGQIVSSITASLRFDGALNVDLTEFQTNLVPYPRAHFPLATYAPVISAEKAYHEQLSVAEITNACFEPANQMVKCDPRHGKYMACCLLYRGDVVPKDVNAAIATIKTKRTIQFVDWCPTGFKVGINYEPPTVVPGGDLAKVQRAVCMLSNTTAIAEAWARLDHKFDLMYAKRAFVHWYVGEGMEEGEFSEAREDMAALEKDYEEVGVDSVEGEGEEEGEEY
T1 sequence (P02554 whole entry): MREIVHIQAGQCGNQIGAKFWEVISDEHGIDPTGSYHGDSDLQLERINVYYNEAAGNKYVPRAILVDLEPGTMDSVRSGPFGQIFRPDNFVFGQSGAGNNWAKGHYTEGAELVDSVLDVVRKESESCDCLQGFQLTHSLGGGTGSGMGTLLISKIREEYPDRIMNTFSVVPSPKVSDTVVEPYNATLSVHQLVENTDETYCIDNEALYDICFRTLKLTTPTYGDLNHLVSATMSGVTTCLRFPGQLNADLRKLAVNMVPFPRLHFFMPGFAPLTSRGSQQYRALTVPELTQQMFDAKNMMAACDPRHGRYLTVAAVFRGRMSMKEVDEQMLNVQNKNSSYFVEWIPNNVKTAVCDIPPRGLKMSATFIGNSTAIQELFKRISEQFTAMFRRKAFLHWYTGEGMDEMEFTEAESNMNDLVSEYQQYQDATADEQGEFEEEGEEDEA

For `COc1ccccc1-c1nc(CNC(=O)c2ccccc2OC(F)F)n[nH]1` [Compound 1, 2-(difluoromethoxy)-N-[[5-(2-methoxyphenyl)-1H-1,2,4-triazol-3-yl]methyl]benzamide], the “Microtubule polymerization (absorbance at 340 nm, Vmax)” value (tubulin) was “inhibits microtubule polymerization”, the IC50 (COLO205 cells; COLO205) was 67 nM and the Emax (COLO205 cells; COLO205, in vitro, read-out: Maximum effect (%)) was 95%.
